The values below are quoted from earlier work in patent US20090110724A1, “COMPOSITIONS AND METHODS FOR TREATMENT OF PAIN” (Everett Laboratories, Inc., priority 2007, published 2009).

SMILES strings stand for the structures.

For data set [1] the following is noted: cold water.
Another data set deals with COX-3. The note with it: Simmons et al. 2002.

For the molecule `C=CCC1(CC(C)C)C(=O)NC(=O)NC1=O` [Butalbital, 5-allyl-5-isobutylbarbituric acid], the solubility entry in data set [1] is “slightly soluble”.
On to `CC(=O)Nc1ccc(O)cc1` [acetaminophen, N-(4-hydroxyphenyl)acetamide], for which, in the data set with COX-3, the “inhibition of COX-3” value is reported as “strong inhibition”.
